One assay has as its target T1, human KV 1.5 (IKur) (Homo sapiens, UniProt P22460).
T1 construct: expressed in transfected cells
Description: block of IKur current in patch clamped L-929 cells expressing human Kv1.5. The note with it: 0.3 μM; patch clamped mammalian L-929 cells stably expressing human Kv1.5. The class given is cell-based. From the text: Assays to determine the degree of activity of a compound as an IKur inhibitor are well known in the art and are described in references such as J. Gen. Physiol., 101(4):513-543 (April 1993), and Br. J. Pharmacol., 115(2):267-274 (May 1995).
Synders, D. J. et al., “A rapidly activating and slowly inactivating potassium channel cloned from human heart: functional analysis after stable mammalian cell culture expression”, J. Gen. Physiol., 101:513-543 (1993). • 2. Zhou, Z. et al., “Block of HERG potassium channels by the antihistamine astemizole and its metabolites desmethylastemizole and norastemizole”, J. Cardiovasc. Electrophysiol., 10(6):836-843 (1999).
T1 sequence (P22460 whole entry): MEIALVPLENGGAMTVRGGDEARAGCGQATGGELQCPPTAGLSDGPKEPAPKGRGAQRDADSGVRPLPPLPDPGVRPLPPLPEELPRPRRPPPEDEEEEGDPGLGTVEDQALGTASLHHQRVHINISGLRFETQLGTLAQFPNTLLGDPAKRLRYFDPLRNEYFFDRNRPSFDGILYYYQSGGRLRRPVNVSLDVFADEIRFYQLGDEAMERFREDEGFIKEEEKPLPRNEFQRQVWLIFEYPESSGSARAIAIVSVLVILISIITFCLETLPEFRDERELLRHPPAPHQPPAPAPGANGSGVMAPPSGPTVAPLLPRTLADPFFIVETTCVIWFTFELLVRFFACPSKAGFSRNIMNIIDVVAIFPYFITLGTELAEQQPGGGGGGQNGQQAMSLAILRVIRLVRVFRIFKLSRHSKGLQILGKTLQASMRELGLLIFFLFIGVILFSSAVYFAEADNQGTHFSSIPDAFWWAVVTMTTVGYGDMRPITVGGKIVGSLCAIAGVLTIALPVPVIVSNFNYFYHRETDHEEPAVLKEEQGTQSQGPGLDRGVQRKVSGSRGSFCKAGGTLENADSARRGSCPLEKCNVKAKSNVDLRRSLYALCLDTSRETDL
As to “1-(1-(4- (benzylamino)-5- phenylpyrrolo [1,2-f][1,2,4] triazine-2-carbonyl) piperidin-4-yl)-1H- benzo[d]imidazol- 2(3H)-one [Example 121]”, the “KV1_5% Inh L929 @0.3 μM” value came to 38.74%. As for “4-(4-(benzylamino)-5- phenylpyrrolo [1,2-f][1,2,4] triazin-2-yl) picolinic acid [Example 95]”, the “KV1_5% Inh L929 @0.3 μM” value is 98.08%. In the case of `CC(Nc1nc(-c2cncc(S(N)(=O)=O)c2)nn2ccc(-c3ccccc3)c12)c1ccccc1` (stereo not drawn) [Example 8, 5-(5-Phenyl-4-(1-phenylethylamino)pyrrolo[1,2-f][1,2,4]triazin-2-yl)pyridine-3-sulfonamide], the “KV1_5% Inh L929 @0.3 μM” value was 95.79%.

Staying with this assay, now noted: L929, 0.3 μM; patch clamped mammalian L-929 cells stably expressing human Kv1.5; read-out: KV1_5% Inh L929 @0.3 μM.
Turning to `N#C[C@@H]1C[C@H]1c1nc(NCc2ccccn2)c2c(-c3ccccc3)ccn2n1` (racemic) [Example 43, (±)-2-(5-Phenyl-4-(pyridin-2-ylmethylamino)pyrrolo[1,2-f][1,2,4]triazin-2-yl)cyclopropanecarbonitrile], the inhibition at 0.3 µM was found to be 98.6%. Turning to `NC(=O)[C@@H]1C[C@H]1c1nc(NCc2ccccn2)c2c(-c3ccccc3)ccn2n1` (racemic) [Example 44, (±)-2-(5-Phenyl-4-(pyridin-2-ylmethylamino)pyrrolo[1,2-f][1,2,4]triazin-2-yl)cyclopropanecarboxamide], the inhibition at 0.3 µM stood at 98.8%. As for `NS(=O)(=O)c1cncc(-c2nc(NCc3ccccc3)c3c(-c4ccccc4)ccn3n2)c1` [Example 1, 5-(4-(Benzylamino)-5-phenylpyrrolo[1,2-f][1,2,4]triazin-2-yl)pyridine-3-sulfonamide], the inhibition at 0.3 µM worked out at 96.5%. `NS(=O)(=O)c1cncc(-c2nc(NCc3ccccn3)c3c(-c4ccccc4)ccn3n2)c1` [Example 2, 5-(5-Phenyl-4-(pyridin-2-ylmethylamino)pyrrolo[1,2-f][1,2,4]triazin-2-yl)pyridine-3-sulfonamide]: the inhibition at 0.3 µM came to 98.5%. On the same count and under the same terms, next, `CS(=O)(=O)Nc1cncc(-c2nc(NCc3ccccn3)c3c(-c4ccccc4)ccn3n2)c1` [Example 3, N-(5-(5-Phenyl-4-(pyridin-2-ylmethylamino)pyrrolo[1,2-f][1,2,4]triazin-2-yl)pyridin-3-yl)methanesulfonamide]: 94.1%; `NC(=O)CC(=O)Nc1cncc(-c2nc(NCc3ccccc3)c3c(-c4ccccc4)ccn3n2)c1` [Example 4, N1-(5-(4-(Benzylamino)-5-phenylpyrrolo[1,2-f][1,2,4]triazin-2-yl)pyridin-3-yl)malonamide]: 97.3%.

Consider `NS(=O)(=O)c1nc(-c2nc(NCc3ccccn3)c3c(-c4ccccc4)ccn3n2)cs1` [Example 5, 4-(5-Phenyl-4-(pyridin-2-ylmethylamino)pyrrolo[1,2-f][1,2,4]triazin-2-yl)thiazole-2-sulfonamide], for which the inhibition at 0.3 µM is 98.5%. Regarding `NS(=O)(=O)c1cncc(-c2nc(NCc3ccccn3)c3c(-c4ccc(F)cc4)ccn3n2)c1` [Example 6, 5-(5-(4-Fluorophenyl)-4-(pyridin-2-ylmethylamino)pyrrolo[1,2-f][1,2,4]triazin-2-yl)pyridine-3-sulfonamide], the inhibition at 0.3 µM stood at 91.7%.

As for `COc1ccc(-c2nc(NCc3ccccn3)c3c(-c4ccc(OC)nc4)ccn3n2)cn1` [Example 7, 2,5-Bis(6-methoxypyridin-3-yl)-N-(pyridin-2-ylmethyl)pyrrolo[1,2-f][1,2,4]triazin-4-amine], the inhibition at 0.3 µM came to 97.8%. Take `CC(Nc1nc(-c2cncc(S(N)(=O)=O)c2)nn2ccc(-c3ccccc3)c12)c1ccccc1` (stereo not drawn) [Example 8, 5-(5-Phenyl-4-(1-phenylethylamino)pyrrolo[1,2-f][1,2,4]triazin-2-yl)pyridine-3-sulfonamide]: the inhibition at 0.3 µM turned out to be 97.5%. Consider `NC(=O)c1cncc(-c2nc(NCc3ccccn3)c3c(-c4ccccc4)ccn3n2)c1` [Example 9, 5-(5-Phenyl-4-(pyridin-2-ylmethylamino)pyrrolo[1,2-f][1,2,4]triazin-2-yl)nicotinamide], for which the inhibition at 0.3 µM turned out to be 98.4%. `O=C(O)c1cncc(-c2nc(NCc3ccccn3)c3c(-c4ccccc4)ccn3n2)c1` [Example 10, 5-(5-Phenyl-4-(pyridin-2-ylmethylamino)pyrrolo[1,2-f][1,2,4]triazin-2-yl)nicotinic acid]: the inhibition at 0.3 µM is 86%.

These data come from patent US9050345B2, “Pyrrolotriazines as potassium ion channel inhibitors” (BRISTOL-MYERS SQUIBB COMPANY, priority 2013, dated 2015).
